Measurements reported in US20240124486A1, “MACROCYCLIC TLR7 AGONIST, PREPARATION METHOD THEREFOR, PHARMACEUTICAL COMPOSITION AND USE THEREOF” (SHANGHAI VISONPHARMA CO., LTD., priority 2020, published 2024).

Target: T1, human TLR7 (Homo sapiens, UniProt Q9NYK1)
T1 construct: host or cells: HEK-Blue hTLR7 (HEK293-derived reporter cells)
T1 sequence (Q9NYK1 27-1049): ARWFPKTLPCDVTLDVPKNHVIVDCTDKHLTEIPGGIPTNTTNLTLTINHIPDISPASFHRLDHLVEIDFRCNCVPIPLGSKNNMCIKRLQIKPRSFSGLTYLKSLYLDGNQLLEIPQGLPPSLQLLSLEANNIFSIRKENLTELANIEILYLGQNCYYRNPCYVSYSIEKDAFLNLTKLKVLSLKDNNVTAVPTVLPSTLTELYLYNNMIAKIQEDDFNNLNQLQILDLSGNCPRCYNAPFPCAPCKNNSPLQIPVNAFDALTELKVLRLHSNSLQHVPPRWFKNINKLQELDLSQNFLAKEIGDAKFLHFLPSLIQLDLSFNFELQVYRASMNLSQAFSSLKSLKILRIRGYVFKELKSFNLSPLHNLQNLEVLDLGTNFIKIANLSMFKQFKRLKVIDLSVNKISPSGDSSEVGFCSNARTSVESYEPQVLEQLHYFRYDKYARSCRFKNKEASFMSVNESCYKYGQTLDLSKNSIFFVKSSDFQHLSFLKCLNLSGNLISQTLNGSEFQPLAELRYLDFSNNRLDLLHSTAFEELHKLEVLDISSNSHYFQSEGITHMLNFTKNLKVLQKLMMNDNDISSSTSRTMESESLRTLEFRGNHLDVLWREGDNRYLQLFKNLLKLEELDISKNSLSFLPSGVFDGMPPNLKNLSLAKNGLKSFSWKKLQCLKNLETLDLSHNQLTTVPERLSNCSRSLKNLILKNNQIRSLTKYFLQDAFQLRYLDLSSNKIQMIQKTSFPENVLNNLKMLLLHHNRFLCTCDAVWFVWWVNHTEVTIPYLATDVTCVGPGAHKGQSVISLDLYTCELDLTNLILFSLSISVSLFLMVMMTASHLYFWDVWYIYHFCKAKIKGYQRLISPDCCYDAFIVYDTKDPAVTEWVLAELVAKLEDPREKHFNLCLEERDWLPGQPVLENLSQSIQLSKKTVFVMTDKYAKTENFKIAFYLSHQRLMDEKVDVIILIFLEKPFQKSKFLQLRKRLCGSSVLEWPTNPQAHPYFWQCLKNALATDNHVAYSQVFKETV
Test: Agonistic activity on human TLR7 in HEK-Blue hTLR7 cell line (QUANTI-Blue reporter)
Type: cell-based
Conditions: HEK-Blue hTLR7 cells, 16-22 h incubation, absorption at 630 nm; read-out: EC50 value of the agonistic effect on human TLR7
Procedure: The TLR7 agonistic activity of the compounds of the invention in HEK-Blue™ hTLR7 cell line with stable expression of human TLR7 were assayed using the following method: • 1. Weighed the test compounds and prepared stock solutions with DMSO (Sigma) at a concentration of 10 mM. […] The highest concentration was 1 mM. • 2. The test compounds and DMSO control were diluted 10-fold in DPBS buffer (Gibco) and then added to a 96-well cell culture plate (Corning) at a volume of 20 μL/well. • 3. HEK-Blue™ hTLR7 cells (Invivogen) were digested with cell separation solution (Gibco), and counted (TC-20 cell counter, Bio-rad). Cells were diluted to 4.4E5/ml using DMEM cell medium (Gibco). Added the cells to a 96-well cell culture plate at a volume of 180 μL/well. The cells were incubated for 16-22 h at 37° C. in a 5% CO2 incubator. • 4. Prepared QUANTI-Blue detection reagent (Invivogen), and added into a new 96-well plate at a volume of 180 μL/well. Twenty μL of cell culture supernatant was transferred from the cell culture plate and added to the 96-well plate and incubated at 37° C. for 1-3 hours. • 5. Neo2 multifunctional microplate reader (Bio-Tek) was used to measure the optical absorption at 630 nm, and the EC50 was calculated by GraphPad Prism.
The agonistic effect of the compounds of the invention on human TLR7 can be determined by the above experiments, and the measured EC50 value is shown in Table 1.

Row | Compound | EC50 [nM]
1 | Nc1nc2nc3c1[nH]c(=O)n3Cc1cc(c3c(c1)C(=O)N(CC(=O)O)C3)C/C=C\CCO2 [Compound I-1] | 3
2 | Nc1nc2nc3c1[nH]c(=O)n3Cc1cc(c3c(c1)C(=O)N(CC(=O)O)C3)CCCCCO2 [Compound I-3] | 10
3 | CN1Cc2c3cc(cc2C1=O)Cn1c(=O)[nH]c2c(N)nc(nc21)OCCC=CC3 [Compound I-4] | 5
4 | CN1Cc2c3cc(cc2C1=O)Cn1c(=O)[nH]c2c(N)nc(nc21)OCCCCC3 [Compound I-5] | 113
5 | Nc1nc2nc3c1[nH]c(=O)n3Cc1cc(c3c(c1)C(=O)N(CCN1CCCC1)C3)C/C=C\CCO2 [Compound I-6] | 2
6 | Nc1nc2nc3c1[nH]c(=O)n3Cc1cc(c3c(c1)C(=O)N(CCN1CCCC1)C3)C/C=C/CCO2 [Compound I-7] | 8
7 | Nc1nc2nc3c1[nH]c(=O)n3Cc1cc(c3c(c1)CNCC3)C/C=C\CCO2 [Compound I-8] | 15
8 | Nc1nc2nc3c1[nH]c(=O)n3Cc1cc(c3c(c1)CNCC3)C/C=C/CCO2 [Compound I-9] | 9
9 | Nc1nc2nc3c1[nH]c(=O)n3Cc1cc(c3c(c1)CNCC3)CCCCCO2 [Compound I-10] | 26
10 | Nc1nc2nc3c1[nH]c(=O)n3Cc1cc(c3c(c1)CCNC3)C/C=C\CCO2 [Compound I-11] | 6
11 | Nc1nc2nc3c1[nH]c(=O)n3Cc1cc(c3c(c1)CCNC3)C/C=C/CCO2 [Compound I-12] | 8
12 | Nc1nc2nc3c1[nH]c(=O)n3Cc1cc(c3c(c1)CCNC3)CCCCCO2 [Compound I-13] | 28
13 | Nc1nc2nc3c1[nH]c(=O)n3Cc1cc(c3c(c1)CCC(C(=O)O)O3)CC=CCCO2 (stereo not shown) [Compound I-14] | 38
14 | Nc1nc2nc3c1[nH]c(=O)n3Cc1cc(c3c(c1)CCC(C(=O)O)O3)CCCCCO2 (stereo not shown) [Compound I-15] | 228
15 | Nc1nc2nc3c1[nH]c(=O)n3Cc1cc(c3c(c1)CC(C(=O)O)O3)CC=CCCO2 (stereo not shown) [Compound I-16] | 17
16 | Nc1nc2nc3c1[nH]c(=O)n3Cc1cc(c3c(c1)CC(C(=O)O)O3)CCCCCO2 (stereo not shown) [Compound I-17] | 167
17 | Nc1nc2nc3c1[nH]c(=O)n3Cc1cc(c3c(c1)CC(C(=O)O)CO3)CC=CCCO2 (stereo not shown) [Compound I-18] | 20
18 | Nc1nc2nc3c1[nH]c(=O)n3Cc1cc(c3c(c1)CC(C(=O)O)CO3)CCCCCO2 (stereo not shown) [Compound I-19] | 165
19 | CC1(C(=O)O)Cc2cc3cc(c2C1)C/C=C\CCOc1nc(N)c2[nH]c(=O)n(c2n1)C3 (stereo not shown) [Compound I-21] | 42
20 | Nc1nc2nc3c1[nH]c(=O)n3Cc1cc(c3c(c1)CN(CC(=O)O)CC3)C/C=C/CCO2 [Compound I-22] | 15
21 | Nc1nc2nc3c1[nH]c(=O)n3Cc1cc(c3c(c1)CN(CC(=O)O)CC3)CCCCCO2 [Compound I-23] | 79
22 | Nc1nc2nc3c1[nH]c(=O)n3Cc1cc(c3c(c1)CCN(CC(=O)O)C3)CC=CCCO2 [Compound I-24] | 84
23 | Nc1nc2nc3c1[nH]c(=O)n3Cc1cc(c3c(c1)CCN(CC(=O)O)C3)CCCCCO2 [Compound I-25] | 95
24 | CC(C)(CN1CCc2c3cc(cc2C1)Cn1c(=O)[nH]c2c(N)nc(nc21)OCCCCC3)C(=O)O [Compound I-27] | 76
25 | Nc1nc2nc3c1[nH]c(=O)n3Cc1cc(c3c(c1)CNCC3)CCCCCCO2 [Compound I-28] | 111
26 | Nc1nc2nc3c1[nH]c(=O)n3Cc1cc3c(c(c1)OC[C@@H]1CC[C@H]1CO2)CCNC3 [Compound I-29] | 35

Row | Compound | EC50 [nM]
27 | Nc1nc2nc3c1[nH]c(=O)n3Cc1cc3c(c(c1)OCCCO2)CCNC3 [Compound I-30] | 75
28 | Nc1nc2nc3c1[nH]c(=O)n3Cc1cc3c(c(c1)OCCCCO2)CCNC3 [Compound I-31] | 39
29 | Nc1nc2nc3c1[nH]c(=O)n3Cc1cc3c(c(c1)OC[C@@H]1C[C@H]1CO2)CCNC3 [Compound I-32] | 31
30 | Nc1nc2nc3c1[nH]c(=O)n3Cc1cc3c(c(c1)OC[C@@H]1CCC[C@H]1CO2)CCNC3 [Compound I-33] | 140
31 | Nc1nc2cc3c1[nH]c(=O)n3Cc1cc(c3c(c1)CNCC3)C/C=C/CCO2 [Compound I-34] | 132
32 | CN1CCc2c3cc(cc2C1)Cn1c(=O)[nH]c2c(N)nc(nc21)OCCCCC3 [Compound I-36] | 20
33 | Nc1nc2nc3c1[nH]c(=O)n3Cc1cc(c3c(c1)CN(CCO)CC3)CCCCCO2 [Compound I-38] | 47
34 | Nc1nc2nc3c1[nH]c(=O)n3Cc1cc(c3c(c1)CN(CC(F)(F)F)CC3)CCCCCO2 [Compound I-39] | 3150
35 | Nc1nc2nc3c1[nH]c(=O)n3Cc1cc(c3c(c1)CN(C1CCNCC1)CC3)CCCCCO2 [Compound I-40] | 280
36 | Nc1nc2nc3c1[nH]c(=O)n3Cc1cc(c3c(c1)CN(C1CCOCC1)CC3)CCCCCO2 [Compound I-41] | 22
37 | CS(=O)(=O)N1CCc2c3cc(cc2C1)Cn1c(=O)[nH]c2c(N)nc(nc21)OCCC=CC3 [Compound I-43] | 3
38 | Nc1nc2nc3c1[nH]c(=O)n3Cc1cc(c3c(c1)CN(C(=O)c1ccccc1)CC3)CC=CCCO2 [Compound I-44] | 38
39 | Nc1nc2nc3c1[nH]c(=O)n3Cc1cc(c3c(c1)CN(S(=O)(=O)c1ccccc1)CC3)CC=CCCO2 [Compound I-45] | 579
40 | Cc1cnc(N2CCc3c4cc(cc3C2)Cn2c(=O)[nH]c3c(N)nc(nc32)OCCCCC4)nc1 [Compound I-46] | 980
41 | Nc1nc2nc3c1[nH]c(=O)n3Cc1cc(c3c(c1)CN(Cc1ccncc1)CC3)CCCCCO2 [Compound I-47] | 165
42 | COC(=O)CN1CCc2c3cc(cc2C1)Cn1c(=O)[nH]c2c(N)nc(nc21)OCCCCC3 [Compound I-49] | 73
43 | CC(C)(C)N1Cc2c3cc(cc2C1=O)Cn1c(=O)[nH]c2c(N)nc(nc21)SCC/C=C\C3 [Compound I-52] | 19
44 | CN1CCC=CCc2cc(cc3c2CN(C(C)(C)C)C3=O)Cn2c(=O)[nH]c3c(N)nc1nc32 [Compound I-58] | 1100
45 | CS(=O)(=O)CCN1CCc2c3cc(cc2C1)Cn1c(=O)[nH]c2c(N)nc(nc21)OCCCCC3 [Compound I-59] | 87
46 | Nc1nc2nc3c1[nH]c(=O)n3Cc1cc(c3c(c1)CNCC3)CCCCCS2(=O)=O [Compound I-61] | 13
47 | Nc1nc2nc3c1[nH]c(=O)n3Cc1cc(c3c(c1)CN(C1CCC1)CC3)CCCCCS2(=O)=O [Compound I-62] | 13
48 | CC(C)N1CCc2c3cc(cc2C1)Cn1c(=O)[nH]c2c(N)nc(nc21)S(=O)(=O)CCCCC3 [Compound I-63] | 31
49 | CC(C)N1CCc2cc3cc(c2C1)OCCCCOc1nc(N)c2[nH]c(=O)n(c2n1)C3 [Compound I-64] | 11
50 | Nc1nc2nc3c1[nH]c(=O)n3Cc1cc(cc3c1CNCC3)OCCCCO2 [Compound I-66] | 393
51 | Nc1nc2nc3c1[nH]c(=O)n3Cc1cc(cc3c1OCC3)CCCCCO2 [Compound I-67] | 316
52 | Nc1nc2nc3c1[nH]c(=O)n3Cc1cc(cc3c1CN(C1CCC1)CC3)OCCCCO2 [Compound I-68] | 25
